Measurements from paper PMC3684613 (PLoS ONE, 2013).
Like-named read-outs stand apart in the source and are kept apart here.

How the values were obtained:
[1] = test system: P. falciparum 3D7; test: DAPI stain fluorescent high content imaging assay, P. falciparum 3D7 (confirmatory screen, Avery); conditions: Plasmodium falciparum; for EC50: 3D7, read-out: EC50_nM; for inhibition of growth at 5 µM: 3D7, read-out: percent_inh @ 5 uM; for inhibition of growth at 2 µM: 3D7, read-out: percent_inh @ 2 uM
[2] = test system: P. falciparum 3D7; design: method as in ChEMBL-NTD; conditions: ref ChEMBL-NTD, cited from earlier work
[3] = original screening data, source (GSK, GNF, StJude), several values separated by ';' in order of sources

| SMILES | EC50 [1] [nM] | inhibition of growth at 5 µM [1] [%] | also measured |
| --- | --- | --- | --- |
| CCOc1ccc(Nc2c3ccccc3nc3ccccc23)cc1 [MMV000304] | 1060 | 97 | EC50 ([2]; source StJude (SJ ids)): 5720 nM |
| Cc1ccc2nc(C)cc(Nc3cccc(C(F)(F)F)c3)c2c1 [MMV000326] | 1170 | 98 | EC50 ([2]; source StJude (SJ ids)): 879 nM |
| CCn1c2c(c(=N)c3c1CCC3)CCCC2 [MMV000340] | 694 | 77 | EC50 ([2]; values follow the order of the source (GNF; GSK; StJude)): 3120 nM |
| Oc1ccc(Br)cc1CN1CCN(Cc2cccc(F)c2)CC1 [MMV000356] | 1030 |  | EC50 [2, 3]: 1400 nM |
| CC(C)(C)c1ccc2c(c1)CN(Cc1ccc(Cl)cc1)CO2 [MMV000442] | 362 | 98 | EC50 ([2]; source StJude (SJ ids)): 255 nM |
| CCOc1ccc2c(c1)CN(Cc1ccc(Cl)cc1)CO2 [MMV000443] | 439 | 97 | EC50 ([2]; source StJude (SJ ids)): 1490 nM |
| CCCCCn1c(=N)n(CC(O)COc2cccc(C)c2)c2ccccc21 (stereo not shown) [MMV000444] |  | 96 | EC50 ([2]; source StJude (SJ ids)): 2650 nM |
| CCCCCCn1c(=N)n(CC(O)COc2cccc(C)c2)c2ccccc21 (stereo not shown) [MMV000445] | 1140 | 98 | EC50 ([2]; source StJude (SJ ids)): 1970 nM |
| CN(C)CCCNc1c2ccccc2nc2ccccc12 [MMV000448] | 235 | 95 | EC50 ([2]; source GNF (GNF-Pf id)): 32.7 nM; EC50 ([2]; source GSK (TCMDC id)): 1040 nM; EC50 ([2]; source StJude (SJ id)): 531 nM |
| CCOc1cc2c(cc1OCC)C(c1cc(Cl)c(O)c(OCC)c1)NCC2 (stereo not shown) [MMV000481] | 1330 | 96 | EC50 ([2]; source StJude (SJ ids)): 3010 nM |
| CCOc1cc2c(cc1OCC)C(c1cc(C)c(O)c(C)c1)NCC2 (stereo not shown) [MMV000483] | 683 | 97 | EC50 [2, 3]: 1830 nM |
| CCN(CC)c1cc(C)c2cc(NC(=O)c3cccc(OC)c3)ccc2n1 [MMV000498] |  | 97 | EC50 ([2]; source StJude): 4770 nM |
| CCCN(CCC)CCCNC(=O)c1cc2c(-c3ccc(OC)c(OC)c3)nn(C)c2s1 [MMV000561] | 1430 | 98 | EC50 [2, 3]: 4040 nM |
| COc1ccc(C2Sc3ccccc3N=C3C2=C(O)c2ccccc23)cc1 (stereo not shown) [MMV000563] | 845 | 96 | EC50 ([2]; source GNF): 238 nM |
| CCc1ccc(Nc2cc(C)c3ccc(O)cc3n2)cc1 [MMV000570] | 194 | 98 | EC50 ([2]; source StJude (SJ id)): 732 nM |
| COc1ccc(-c2cc(=O)oc3c4c(ccc23)OCN(Cc2ccc(F)cc2)C4)cc1 [MMV000604] | 735 | 96 | EC50 ([2]; source StJude (SJ ids)): 5210 nM |
| COc1ccc(C(O)(CCC(C)C)C(CN2CCOCC2)c2ccc(Cl)cc2)cc1 (stereo not shown) [MMV000617] |  | 97 | EC50 ([2]; source StJude (SJ ids)): 4610 nM |
| CCCCC(O)(c1ccc(Cl)cc1)C(CN1CCOCC1)c1ccc(Cl)cc1 (stereo not shown) [MMV000619] | 1380 | 98 | EC50 ([2]; source StJude (SJ ids)): 4010 nM |
| CC(O)(c1ccc(Cl)cc1)C(CN1CCCCC1)c1ccccc1 (stereo not shown) [MMV000620] |  | 94 | EC50 ([2]; source StJude): 916 nM |
| CCCCCCC(O)(c1ccc(F)cc1)C(CN1CCOCC1)c1ccccc1 (stereo not shown) [MMV000621] |  | 93 | EC50 ([2]; source StJude (SJ ids)): 3180 nM |

| SMILES | EC50 [1] [nM] | inhibition of growth at 5 µM [1] [%] | also measured |
| --- | --- | --- | --- |
| CC1CCCCN1CCCNC(=O)c1ccc2c(c1)sc1nc(-c3ccc(F)cc3)cn12 (stereo not shown) [MMV000634] | 648 | 98 | EC50 ([2]; source StJude): 634 nM |
| COc1ccc(NC(=O)C2c3ccccc3C(=O)N(CC(C)C)C2c2cccs2)cc1Cl (stereo not shown) [MMV000642] | 20.2 | 100 | EC50 ([2]; source GNF (GNF-Pf id)): 91.4 nM; EC50 ([2]; source StJude (SJ id)): 119 nM |
| COc1ccccc1CNC(=O)C1c2ccccc2C(=O)N(CC(C)C)C1c1cccs1 (stereo not shown) [MMV000648] |  | 97 | EC50 ([2]; source StJude): 3160 nM |
| CCOc1ccccc1CNC(=O)C1c2ccccc2C(=O)N(CC(C)C)C1c1cccs1 (stereo not shown) [MMV000653] | 1320 | 97 | EC50 ([2]; source StJude): 1430 nM |
| COc1ccc(NC(=O)C2c3ccccc3C(=O)N(CC(C)C)C2c2cccs2)cc1 (stereo not shown) [MMV000662] | 36.7 | 100 | EC50 ([2]; source StJude (SJ id)): 102 nM |
| Cc1ccc(C2CC(C(F)(F)F)n3nc(C(=O)N4CCN(C(c5ccccc5)c5ccccc5)CC4)cc3N2)cc1 (stereo not shown) [MMV000699] | 454 | 98 | EC50 ([2]; source StJude (SJ ids)): 668 nM |
| O=C(NCC(c1ccsc1)N1CCCCCC1)c1ccc(C(F)(F)F)cc1 (stereo not shown) [MMV396672] | 433 |  |  |
| O=C(CSc1nccn2nc(-c3ccccc3)cc12)Nc1cc(C(F)(F)F)ccc1Cl [MMV396678] | 218 |  |  |
| COc1ccc(-c2cc3c(SCC(=O)Nc4cc(C(F)(F)F)ccc4Cl)nccn3n2)cc1 [MMV396679] | 89.9 |  |  |
| Cc1ccc(-c2cc3c(SCC(=O)Nc4cc(C(F)(F)F)ccc4Cl)nccn3n2)cc1 [MMV396680] | 92.8 |  |  |
| Cc1cc(NC(=O)c2cccc(C(F)(F)F)c2)n(-c2nc(-c3ccc4c(c3)OCO4)cs2)n1 [MMV396681] | 959 |  |  |
| C[n+]1c2ccccc2nc2ccc(NCCO)cc21 [MMV396693] | 296 |  |  |
| CCN(CC)CCNc1ncnc2c1[nH]c1ccc(Cl)cc12 [MMV396703] | 406 |  |  |
| CN1CCN(c2ncnc3c2[nH]c2ccc(Cl)cc23)CC1 [MMV396704] | 1190 |  |  |
| COc1cccc(Cn2c(Oc3ccccc3)nc3c2c(=O)n(C)c(=O)n3C)c1 [MMV396705] | 1390 |  |  |
| CC1(c2ccccc2)Nc2ccccc2-c2nc3ccccc3n21 (stereo not shown) [MMV396715] | 1730 |  |  |
| COc1ccc(CCN2C(=O)c3[nH]nc(-c4cc(Cl)c(C)cc4O)c3C2c2ccccc2F)cc1 (stereo not shown) [MMV396717] | 916 |  |  |
| COc1cccc(C2(C)Nc3ccccc3-c3nc4ccccc4n32)c1 (stereo not shown) [MMV396719] | 1150 |  |  |
| N=c1n(CCN2CCCCC2)c2ccccc2n1CC(=O)c1ccc(Cl)c(Cl)c1 [MMV396723] | 1240 |  |  |
| N#Cc1nc(Cc2cccc3ccccc23)oc1N1CCN(C(c2ccccc2)c2ccccc2)CC1 [MMV396726] | 1160 |  |  |

| SMILES | EC50 [1] [nM] | inhibition of growth at 5 µM [1] [%] | also measured |
| --- | --- | --- | --- |
| OC(CNCC1CCCO1)Cn1c2ccc(Cl)cc2c2cc(Cl)ccc21 (stereo not shown) [MMV396736] | 1060 |  |  |
| CC(C)CNC(=O)c1c(N)n(CCc2ccccc2F)c2nc3ccccc3nc12 [MMV396744] | 832 |  |  |
| COc1ccc2c(c1)C1(Nc3ccccc3-c3nc4ccccc4n31)C(=O)N2 (stereo not shown) [MMV396749] | 928 |  |  |
| O=C(NNc1cc(N2CCCC2)nc(N2CCCC2)n1)c1ccccc1 [MMV396770] | 1330 |  |  |
| CC(C)(C)CC(C)(C)NCC(O)COc1ccc(Cl)cc1Cl (stereo not shown) [MMV396794] | 1160 |  |  |
| COc1ccc(-c2c(C)nn3c(N)c(C#N)cnc23)cc1OC [MMV396797] | 477 |  |  |
| Cc1cccc(-n2ncc3c(=O)[nH]c(-n4nc(C)cc4NC(=O)c4cc5ccccc5o4)nc32)c1 [MMV403679] | 929 |  |  |
| Nc1ccn([C@@H]2O[C@H](CO)[C@@H](O)[C@H]2O)c(=O)n1 [MMV638723] | 385 |  |  |
| O=C1C2=C(Nc3ccccc3SC2c2ccccc2)c2ccccc21 (stereo not shown) [MMV645672] | 890 |  |  |
| O=C(Nc1cccc(C2=NCCN2)c1)Nc1cccc(C2=NCCN2)c1 [MMV665810] | 1010 | 83 |  |
| Oc1c(C(Nc2ccccn2)c2cccc(Oc3ccccc3)c2)ccc2cccnc12 (stereo not shown) [MMV665814] | 1010 | 97 |  |
| COc1ccc(C=C2SC(Nc3ccccc3)=NC2=O)cc1 [MMV665836] | 551 | 71 |  |
| CCOc1ccc(N2C(N)=NC(N)=NC2(C)C)cc1 [MMV667486] |  |  | inhibition of growth at 2 µM [1]: 92% |
| CN(C)c1ccc(N2C(N)=NC(N)=NC2(C)C)cc1 [MMV667487] |  |  | inhibition of growth at 2 µM [1]: 95% |
| COC(=O)c1ccc(Cl)c2c1C1C=CCC1C(c1cccc3ccccc13)N2 (stereo not shown) [MMV667489] | 939 |  |  |
| COc1ccc(C2c3ccc4ccccc4c3Oc3ncn(CCCn4ccnc4)c(=N)c32)cc1OC (stereo not shown) [MMV667490] | 1790 |  |  |
| COc1ccc(C2c3ccc4ccccc4c3Oc3ncn(CCCN(C)C)c(=N)c32)cc1 (stereo not shown) [MMV667491] | 1230 |  |  |
| CN(N=O)C1=C(NC2CCCCC2)C(=O)c2ccccc2C1=O [MMV667492] | 1190 |  |  |
